The text below walks through data of US10358463B2, “Immunomodulators” (BRISTOL-MYERS SQUIBB COMPANY, priority 2016, dated 2019).

Numbered stars: 1 amine (or outer) side, 2 acyl side, 3 side chain; on linkers, the order of the positions; unused ones are H or OH. Bridge positions count the residues as written; N and C are the ends. Square brackets hold non-standard residues; d marks the D form. Peptide text beside a SMILES is read from it. X10 = COc1ccc2c(c1)c(C[C@H](N[*:1])C(=O)[*:2])cn2CC(=O)O; Hyp = O=C(O)[C@@H]1C[C@@H](O)CN1; NMeNle = CCCC[C@H](NC)C(=O)O; NMeA = CN[C@@H](C)C(=O)O; Dab = NCC[C@H](N)C(=O)O; Dap = NC[C@H](N)C(=O)O

The experiment addresses T1, PD-1-Ig binding to PD-L1-TVMV-His (PD-L1-His) (Homo sapiens, UniProt Q9NZQ7).
T1 construct: hPDL1 (19-239)-TVMV-His; TVMV protease cleavage site (C); made in house; host or cells: HEK293T cells
As to the kind of experiment: PD-1/PD-L1 Homogenous Time-Resolved Fluorescence (HTRF) binding assay. As to conditions: PD-1-Ig (20 nM)/PD-L1-His (10 nM); range class. For orientation: Time-resolved FRET reads energy transfer from a long-lived donor to a nearby acceptor.

T1 sequence (Q9NZQ7 with tags, fused parts or gaps): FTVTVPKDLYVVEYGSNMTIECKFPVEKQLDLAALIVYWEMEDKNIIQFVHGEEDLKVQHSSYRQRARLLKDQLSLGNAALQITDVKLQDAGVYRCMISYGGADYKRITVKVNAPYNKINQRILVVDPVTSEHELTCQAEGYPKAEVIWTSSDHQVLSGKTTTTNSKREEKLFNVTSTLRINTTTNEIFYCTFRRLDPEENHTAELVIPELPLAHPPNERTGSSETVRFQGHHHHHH

As to `CCCC[C@H]1C(=O)N(C)[C@@H](CCCC)C(=O)N[C@@H](CC(C)C)C(=O)N[C@H](C(=O)NCC(N)=O)CSCC(=O)N[C@@H](Cc2ccc(O)cc2)C(=O)N(C)[C@@H](C)C(=O)N[C@@H](CC(N)=O)C(=O)N2CCC[C@H]2C(=O)N[C@@H](CN)C(=O)N[C@@H](CC(C)C)C(=O)N2C[C@H](O)C[C@H]2C(=O)N[C@@H](Cc2c[nH]c3ccccc23)C(=O)N[C@@H](CCN)C(=O)N[C@@H](Cc2cn(CC(=O)O)c3ccc(OC)cc23)C(=O)N1C` [Example 10506] ({CH2CO}-Y[NMeA]NP[Dap]L[Hyp]W[Dab][X10][NMeNle][NMeNle]LCG-NH2; thioether N-14), the IC50 (commonly the point on the concentration scale where inhibition reaches its midpoint) was in the range of 1 to 9.9 nM.
